Patent US11332485B2, “Penicillin-binding protein inhibitors” (priority 2017, dated 2022)

Tests used:
[1] = molecular target: T1, E. coli K12 PBP1a (Escherichia coli, UniProt P02918); experiment: Bocillin FL competition binding assay (SDS-PAGE gel, membrane PBPs); conditions: 15 min. pre-incubation, membrane protein extracts, SDS-PAGE fluorescence scan
T1 construct: 100 μg's of total membrane protein extracts containing PBPs; endogenous in cells; host or cells: Escherichia coli K12 membrane fraction
T1 sequence (P02918 whole entry): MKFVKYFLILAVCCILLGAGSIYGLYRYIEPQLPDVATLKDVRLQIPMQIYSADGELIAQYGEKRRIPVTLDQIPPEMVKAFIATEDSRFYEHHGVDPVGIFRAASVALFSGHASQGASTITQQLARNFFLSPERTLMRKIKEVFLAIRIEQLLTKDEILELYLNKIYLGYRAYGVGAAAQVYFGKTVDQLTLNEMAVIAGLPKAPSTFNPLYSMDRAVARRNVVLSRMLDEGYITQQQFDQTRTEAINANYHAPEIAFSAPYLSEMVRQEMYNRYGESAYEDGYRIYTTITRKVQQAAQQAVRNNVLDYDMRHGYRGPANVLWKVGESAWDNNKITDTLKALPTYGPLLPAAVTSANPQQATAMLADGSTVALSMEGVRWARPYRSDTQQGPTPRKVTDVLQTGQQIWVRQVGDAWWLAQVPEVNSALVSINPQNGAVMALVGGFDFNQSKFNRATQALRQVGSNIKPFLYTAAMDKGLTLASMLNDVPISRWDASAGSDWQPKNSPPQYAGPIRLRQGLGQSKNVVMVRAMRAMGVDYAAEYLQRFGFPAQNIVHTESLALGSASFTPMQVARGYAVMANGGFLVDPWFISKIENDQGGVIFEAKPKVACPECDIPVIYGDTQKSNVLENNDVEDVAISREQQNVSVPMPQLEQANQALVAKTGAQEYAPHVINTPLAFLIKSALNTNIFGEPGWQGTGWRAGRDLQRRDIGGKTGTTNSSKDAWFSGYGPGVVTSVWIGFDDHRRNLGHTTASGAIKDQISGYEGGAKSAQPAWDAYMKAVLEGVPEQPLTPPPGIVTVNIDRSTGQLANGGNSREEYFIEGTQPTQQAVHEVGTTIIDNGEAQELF
Method: (§1) To determine the ability of test compounds to bind Penicillin Binding Proteins (PBPs), a competition binding assay using Bocillin FL (fluorescent derivative of penicillin V) was adapted from the classical method used to assess PBP potency of beta-lactams.
(§2) Penicillin binding proteins were isolated from Escherichia coli K12 by growth of Escherichia coli K12 from a single colony in 4 L of Luria-Bertani (LB) broth at 35° C. and 250 rpm to an OD600 nm of 0.5. The cells were harvested by centrifugation at 7,000×g for 10 min. at 4° C. Cells were resuspended and washed in 50 mM potassium phosphate pH 7.5. The cells were re-suspended in sonication buffer [50 mM Tris-HCl pH 7.5, 1 mM MgCl2, 1 mM beta-mercaptoethanol, and 5 μg/mL DNAse I] and sonicated by 4 passes of 30 seconds at 45 W on ice. The sample was clarified by centrifugation at 3,000×g to remove cell debris and unbroken cells and supernatant containing the membrane proteins was retained. The membrane proteins including the PBPs were further purified from soluble constituents by an ultracentrifugation step at 100,000×g for 30 min. at 4° C. The membrane proteins are washed twice with 10 mM sodium phosphate pH 7, resuspended in a volume of 5 mL, quantitated by BCA assay, adjusted to […] and frozen at −80° C. until use.
(§3) The adapted Bocillin FL competition binding assay described herein incorporates a 15 min. pre-incubation of test compound with isolated PBPs to attempt to balance the difference in mechanism of inhibition between beta-lactams (largely irreversible covalent bond to active site Serine) and the boron-containing PBP inhibitor test compounds (reversible covalent bond to active site Serine). Briefly, 50 μL reactions consisted of 100 μg's of total membrane protein extracts containing PBPs incubated with a dilution series of test compound ranging from 0.005 μg/mL to 2,480 μg/mL in 10 mM sodium phosphate pH7 containing 350 mM NaCl. Thirty minute reactions at 35° C. were initiated by addition of […] Bocillin FL, quenched by addition of SDS-PAGE loading buffer containing sodium dodecyl sulfate (SDS) and heated for 15 minutes at 95° C. to denature proteins in preparation for SDS-polyacrylamide gel electrophoresis. The Bocillin FL labeled PBPs are then separated by SDS-PAGE in Novex NuPage 10% Bis-Tris pre-cast gels (Invitrogen). The SDS-PAGE gel, post-electrophoresis, is then washed in water to remove excess SDS for 10 minutes at room temperature and placed on the scanning bed of a GE Healthcare/Amersham Biosciences Storm 860 fluorescence scanner. […] Effective PBP inhibitors are detected by a reduction in Bocillin FL labeling of the particular PBP over the dose range of test compound in a dose-responsive manner. […]

[2] = molecular target: T2, E. coli PBP3 (Escherichia coli, UniProt P0AD68); experiment: as above; conditions: 15 min. pre-incubation, membrane protein extracts, SDS-PAGE fluorescence scan
T2 construct: 100 μg's of total membrane protein extracts containing PBPs; endogenous in cells; host or cells: Escherichia coli K12 membrane fraction
T2 sequence (P0AD68 1-577): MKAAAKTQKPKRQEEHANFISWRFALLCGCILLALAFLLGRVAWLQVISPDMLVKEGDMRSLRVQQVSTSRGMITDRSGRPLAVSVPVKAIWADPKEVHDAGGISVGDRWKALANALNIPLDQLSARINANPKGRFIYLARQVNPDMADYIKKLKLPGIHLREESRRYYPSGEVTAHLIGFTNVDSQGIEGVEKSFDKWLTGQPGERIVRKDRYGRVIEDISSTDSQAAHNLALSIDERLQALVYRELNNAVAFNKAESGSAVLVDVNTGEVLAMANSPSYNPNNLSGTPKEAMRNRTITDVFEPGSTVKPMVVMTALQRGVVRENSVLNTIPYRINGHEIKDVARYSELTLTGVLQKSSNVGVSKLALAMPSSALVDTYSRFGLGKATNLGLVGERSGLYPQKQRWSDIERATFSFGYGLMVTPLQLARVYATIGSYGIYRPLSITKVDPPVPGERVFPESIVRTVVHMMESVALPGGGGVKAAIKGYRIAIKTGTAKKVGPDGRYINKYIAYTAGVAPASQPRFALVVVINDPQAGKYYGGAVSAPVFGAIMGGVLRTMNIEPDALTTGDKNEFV
Method: as §1, §2, §3

[3] = test system: E. coli PBP1b; experiment: as above; parameters: species or system Escherichia coli; conditions: 15 min. pre-incubation, membrane protein extracts, SDS-PAGE fluorescence scan
Method: as §1
Penicillin binding proteins were isolated from Escherichia coli K12 by growth of Escherichia coli K12 from a single colony in 4 L of Luria-Bertani (LB) broth at 35° C. and 250 rpm to an OD600 nm of 0.5. The cells were harvested by centrifugation at 7,000×g for 10 min. at 4° C. Cells were resuspended and washed in 50 mM potassium phosphate pH 7.5. […] The membrane proteins are washed twice with 10 mM sodium phosphate pH 7, resuspended in a volume of 5 mL, quantitated by BCA assay, adjusted to 10 μg/mL and frozen at −80° C. until use.
The adapted Bocillin FL competition binding assay described herein incorporates a 15 min. pre-incubation of test compound with isolated PBPs to attempt to balance the difference in mechanism of inhibition between beta-lactams (largely irreversible covalent bond to active site Serine) and the boron-containing PBP inhibitor test compounds (reversible covalent bond to active site Serine). […] The SDS-PAGE gel, post-electrophoresis, is then washed in water to remove excess SDS for 10 minutes at room temperature and placed on the scanning bed of a GE Healthcare/Amersham Biosciences Storm 860 fluorescence scanner. […]

[4] = molecular target: T3, PBP3 from Escherichia coli (Escherichia coli, UniProt P0AD68); experiment: Fluorescence polarization competition binding assay with Bocillin-FL
T3 construct: made in house
T3 sequence (P0AD68 1-577): as above
Method in brief: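 Fluorescence polarization competition assay with Bocillin-FL at 0.1 μM final and purified E. coli PBP3 at 1.5 μM final in 50 mM Hepes pH 8.0, 300 mM NaCl, 5% glycerol. Inhibitor preincubated with PBP3 for 30 min before probe addition; FP then read continuously for 60 min. Potency reported in binned categories.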

## CCN1CCN(C(=O)NC(C(=O)N[C@H]2Cc3cccc(C(=O)O)c3OB2O)c2csc(N)n2)C(=O)C1=O (stereo partly drawn) [Example 12, (3R)-3-(2-(2-aminothiazol-4-yl)-2-(4-ethyl-2,3-dioxopiperazine-1-carboxamido)acetamido)-2-hydroxy-3,4-dihydro-2H-benzo[e][1,2]oxaborinine-8-carboxylic acid]
[1]
  E. coliK12 PBP1a Potency: B (B represents a potency between 64 and 1000 μg/mL inclusive)
[2]
  E. coli PBP3 Potency: A (A represents a potency of >1000 μg/mL)
[3]
  E. coli PBP1b Potency: C (C represents a potency of <64 μg/mL)
[4]
  EC50: < 30 µM
